According to the METLIN SMRT retention time set (Domingo-Almenara et al. 2019):

Assay: gradient 5% acetonitrile 3 min, to 50% in 2 min, to 85% in 15 min, held 3 min, 100 µL/min
Settings: column: Zorbax Extend-C18 2.1 x 50 mm; eluents: water / acetonitrile, 0.1% formic acid
Procedure, shortened: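 Pure standards were run in mixtures of ~100 molecules by HPLC coupled to a quadrupole time-of-flight mass spectrometer. The column was a Zorbax Extend-C18 (2.1 × 50 mm, 1.8 μm) at 100 μL/min, with water and acetonitrile each containing 0.1% formic acid, in positive and negative ionization mode. Dead and dwell volumes were 40 μL and 900 μL. Retention time was taken from computationally picked adduct peaks, each manually inspected, with data collected over 3 months.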

Structure (SMILES) | RP-LC retention time
COC(=O)c1ccc(CSc2nnc(NC(=O)c3cc(C)on3)s2)o1 | 737 s
COc1ccc(OC)c(NC(=O)Nc2cccc(-c3nccnc3N3CCCC3)c2)c1 | 916 s
Cc1cc(F)ccc1NC(=O)c1c(O)c2cccnc2n(-c2ccc(F)cc2)c1=O | 1240 s
Cc1ccc(N2C=NS(=O)(=O)c3cccnc32)c(F)c1 | 801 s
CNC(=O)C1CCCN(c2nc3ncn(CC(=O)NCCC4=CCCCC4)c(=O)c3s2)C1 (stereo not given) | 685 s
Cc1cccc(N2CCN(C(=O)c3[nH]c(C)c(S(=O)(=O)N4CCOCC4)c3C)CC2C)c1 (stereo not given) | 752 s
Cc1cc(Cl)ccc1S(=O)(=O)Nc1ccc(Cn2cncn2)cc1 | 782 s
O=C(C1=NN(Cc2ccccc2F)c2ccccc2S1(=O)=O)N1CCCCC1 | 939 s
O=S(=O)(Nc1ccc(Cn2cncn2)cc1)c1ccc(Br)cc1 | 747 s
CC(C)Cn1c(=O)c2nscc2n(CC(=O)NC(C)C)c1=O | 693 s
Cc1ccc(CS(=O)(=O)N2CCC(CN3CCCCCC3)CC2)cc1C | 723 s
COc1ccccc1Nc1nc(-c2ccc(C)cc2)c(C)s1 | 1210 s
O=C(CSc1nnc2c3sc(N4CCCC4)nc3ncn12)Nc1ccc(Cl)cc1 | 855 s
O=C(c1cccc(Cl)c1)N1C[C@@H]2C[C@H]1C[C@@H]2NS(=O)(=O)c1cccnc1 | 709 s
O=c1c2sccc2n(Cc2nc(-c3ccc(C(F)(F)F)cc3)no2)c(=O)n1-c1cccc(F)c1 | 1090 s
COc1cccc(CNC(=O)C2(C)CCCN(C(=O)Nc3cc(OC)cc(OC)c3)C2)c1 (stereo not given) | 844 s
NS(=O)(=O)c1ccc(CCNC(=O)c2ccc(=O)[nH]n2)cc1 | 542 s
CCn1cccc1-c1nc(C)c(C(=O)Nc2ccc(C(C)C)cc2)s1 | 1310 s
COc1cc(NS(=O)(=O)c2cn(C(C)C)c3ncccc23)cc(OC)c1 | 876 s

Structure (SMILES) | RP-LC retention time
Nc1ccc(Nc2nc(-c3ccc(Cl)cc3)cs2)cc1 | 947 s
CCOC(=O)N1CCN(C(=O)Cn2cnc(-c3ccc(OC)cc3)cc2=O)CC1 | 652 s
COc1ccc(N2CCN(C(=O)c3sc4ncccc4c3-n3cccc3)CC2)cc1 | 917 s
Clc1cccc(-c2noc(Cc3nc(-c4ccc5c(c4)OCO5)cs3)n2)c1 | 1250 s
CC(=O)N1CCC(C2CCN(S(=O)(=O)c3ccc(Cl)s3)C2)CC1 (stereo not given) | 761 s
CC(C)C(=O)N1CCc2c(c(C(=O)N3CCC(C(=O)NCc4ccc(F)cc4)CC3)nn2C)C1 | 675 s
COc1ccc(-c2csc3c(=O)n(CCOc4ccccc4)cnc23)cc1 | 1060 s
O=C(CCCN1C(=O)CSc2ncccc21)N1CCN(c2ccccn2)CC1 | 559 s
COc1ccc(CNC(=O)Cc2csc3nc(-c4ccc(OC)c(OC)c4)cn23)cc1OC | 648 s
CCNC(=O)c1nc(C(=O)NCc2ccc(F)cc2)cs1 | 751 s
CC(C)CNC(=O)C1COC2(CCCCC2)N1C(=O)c1ccccc1C(F)(F)F (stereo not given) | 938 s
CC(C)(C)c1csc(-c2csc(S(=O)(=O)NCc3ccc(Cl)cc3)c2)n1 | 1340 s
CCCC(NC(=O)Cc1ccc(OCC)c(OCC)c1)C(=O)Nc1nc2ccccc2[nH]1 (stereo not given) | 1070 s
O=C(Cn1nc2c(N3CCCCCC3)nccn2c1=O)NCCC1=CCCCC1 | 784 s
CCOC(=O)C1CCN(C(=O)C2CCN(c3ccc(N4CCCC4)nn3)CC2)CC1 | 628 s
Cc1nc2cccnc2n1C1CCN(C(=O)Nc2ccc(Cl)cc2)CC1 | 659 s
Cn1c(C(=O)NCc2ccc(F)cc2)cc2sccc21 | 663 s
CN1CCN(C(=O)CN2C(=O)CCCc3cc(S(=O)(=O)N4CCCCCC4)ccc32)CC1 | 632 s
COC(=O)c1c(C(=O)OC)c2c3ccccc3ccn2c1C(=O)OC | 916 s

Structure (SMILES) | RP-LC retention time
O=C(COc1ccc(Cl)cc1)Nc1cccc2c1C(=O)NC2=O | 854 s
CS(=O)(=O)N1CCC(c2nnc(-c3ccco3)s2)CC1 | 655 s
CCC(C)c1c(N)n(S(=O)(=O)c2ccc(C)cc2)oc1=O (stereo not given) | 932 s
CC(C)NC(=O)CN1CCN(C(=O)c2sc3ncccc3c2-n2cccc2)CC1 | 607 s
CCn1cnc(S(=O)(=O)N2CCC(C(=O)Nc3ccc(OC)cc3OC)CC2)c1 | 706 s
CCOc1cc(CNC(=O)C2=Cc3cc(OC)ccc3OC2)ccc1OC | 873 s
COc1ccc(NC(=O)N2CCN(C3=CC4=NCC(C)N4C=N3)CC2)cc1 (stereo not given) | 599 s
Fc1ccccc1-c1ccc(CNCc2ccccn2)o1 | 655 s
CC(C)CN1C(=O)c2cccn2CC1C(=O)NCCCOC(C)C (stereo not given) | 718 s
O=C(CCc1nc2ccccc2s1)NC1CCN(C(=O)N2C[C@H]3C[C@H](C2)[C@H]2CCCC(=O)N2C3)CC1 | 661 s
CC(O)c1nc2c(c(=O)n(C)c(=O)n2C)n1C (stereo not given) | 622 s
Cc1nn(C)cc1S(=O)(=O)Nc1nc2ccc(S(C)(=O)=O)cc2s1 | 581 s
O=C(Nc1ccc(F)c(Cl)c1)c1cn2c(n1)CCCC2 | 648 s
Cc1cc(-c2ccc(S(=O)(=O)N3CCC(C(=O)N4CCCCCC4)CC3)o2)n[nH]1 | 772 s
CNC(=O)C1CCCN(c2nc3ncn(CC(=O)Nc4cc(F)ccc4F)c(=O)c3s2)C1 (stereo not given) | 641 s
COC(=O)CSc1nnc(-c2sc3ncccc3c2N)n1C1CC1 | 694 s
O=C(CF)N(O)c1ccc(/C=C/c2ccccc2)cc1 | 959 s
Cc1ccn2c(=O)c(C(=O)Nc3nc(C)cs3)cnc2c1 | 673 s

Now from value to compound:

RP-LC retention time | Structure (SMILES)
780 s | Cn1c(-c2cccc(C(=O)NC3CCCCCC3)c2)nc2cccnc21
682 s | COCCNC(=O)Cn1nc(C)c2sc(-c3ccccc3)nc2c1=O
941 s | Cc1cc(=O)n(CC(=O)Nc2ccc3c(c2)OCO3)c(-c2ccccc2)n1
758 s | Cc1nn(CC(=O)NCCc2ccco2)c(=O)c2nn(-c3ccccc3)c(C)c12
937 s | CN(C)S(=O)(=O)c1ccc(-c2nnc(C(=O)NCC3CCCCC3)o2)cc1
657 s | COc1ccc(-c2cnn3c(C)cc(C)nc23)cc1S(=O)(=O)NCCN1CCCC(C)C1 (stereo not given)
854 s | COc1ccc(OC)c(S(=O)(=O)N2CCCC(C(=O)NCCc3ccccc3)C2)c1 (stereo not given)
611 s | O=C(NCc1ccccc1F)C1CCN(c2cncnc2N2CCOCC2)CC1
1010 s | COc1cccc(C2Cn3nnc(-c4nc(-c5ccccc5OC)no4)c3CO2)c1 (stereo not given)
647 s | CC(C)N1CCN(Cc2nc(Cn3ccn4nc(-c5ccccc5)cc4c3=O)no2)CC1
926 s | CC(C)n1nc(CNC(=O)c2ccc(Br)o2)c2ccccc21
770 s | Cc1cc(-c2nnc(-c3ccccc3)o2)c(C)n1CC(=O)NCC1CCCO1 (stereo not given)
981 s | COc1ccc(Cl)cc1S(=O)(=O)N1CCCC(C)(C(=O)NCc2ccccc2)C1 (stereo not given)
618 s | Cc1ccccc1CC(=O)NCc1ccc2c(c1)ncn2C(C)C
1140 s | O=C(Cn1cccc1-c1nc(-c2ccc3c(c2)OCO3)no1)Nc1ccc2c(c1)CCC2
582 s | COc1cccc(-c2nnc3sc(CN4CCc5ccccc5C4)cn23)c1
1050 s | CSc1cccc(NC(=O)Cn2cccc(-c3nc(-c4ccc(Br)cc4)no3)c2=O)c1

RP-LC retention time | Structure (SMILES)
1030 s | Cc1ccc(NC(=O)CCc2nc(CSc3nnc(-c4ccccc4)o3)no2)cc1Cl
699 s | Cc1cc(=O)n(CC(=O)Nc2cc(F)ccc2C)c(N2CCCCC2)n1
866 s | O=C(Nc1nnc(-c2cc(Cl)sc2Cl)o1)c1ccc([N+](=O)[O-])o1
886 s | Cc1cc(-c2nnc(-c3ccco3)o2)c(C)n1CC(=O)NCc1cccc(Cl)c1
702 s | CC1=C(c2ccccc2)S(=O)(=O)N=C1N1CCC(NC(=O)C2CCCO2)CC1 (stereo not given)
1140 s | CCCCn1c(=O)c2ccccc2n(Cc2nc(-c3ccccc3)no2)c1=O
867 s | COc1ccccc1NC(=O)Cn1nc2c(Oc3cccc(F)c3)nccn2c1=O
860 s | Cc1ccc(CNC(=O)Cn2c(=O)nc(N3CCC(C)CC3)c3ccccc32)cc1
759 s | CCN(CC)C(=O)C1CCN(S(=O)(=O)Cc2ccccc2)CC1
1020 s | O=C(Cc1ccc(Cl)cc1)Nc1nc(-c2ccccc2)cs1
701 s | CC(=O)N1CCc2cc(N3CC(C(=O)Nc4ccccc4Cl)CC3=O)ccc21 (stereo not given)
562 s | Cc1nnc2cc(N3CCN(C(=O)Nc4cccc(Br)c4)CC3)cnn12
959 s | COc1ccccc1N1CCN(c2cc(SCC(=O)NCCCc3ccccc3)ncn2)CC1
1160 s | CC1CCc2onc(C(=O)Nc3cccc(Cl)c3)c2C1 (stereo not given)
1180 s | CCc1nc(-n2cccc2)sc1C(=O)Nc1cc(C)ccc1F
636 s | FC1(c2nc(-c3ccccc3)no2)CCN(C2CCOCC2)CC1
869 s | CC(C)CNC(=O)CCc1nc2ccccc2n(CC(=O)NC(C)CCc2ccccc2)c1=O (stereo not given)
